Experimental data as given in US12048307B2, “Compositions, methods and uses for cleaning, disinfecting and/or sterilizing” (Collidion, Inc., priority 2017, dated 2024).

Test system: Bacillus subtilis (ATCC #19659) spores
Assay: B. subtilis spore viability assay, 15 minutes treatment, with or without serum
Assay type: cell-based
Conditions: spore suspension about 1×10^6 cfu/mL, 48 hours incubation at 37° C. on TSA, >500 = too many colonies to count
Experimental: To prepare stock cultures of pathogenic spores, 10 mL nutrient broth was inoculated using a stock culture of Bacillus subtilis (ATCC #19659) and incubated on an orbital shaker for 24±2 hours at approximately 150 rpm at 36±1° C. This culture was used to inoculate Tryptic Soy Agar (TSA) plates. Each plate was inoculated with 500 μL of broth culture and the inoculum spread with a sterile L spreader. In addition, the purity of this culture was verified by streaking on TSA plates and incubating plates at 36±1° C. for 24±2 hours. Each plate was wrapped with parafilm. inverted and incubated for 12-14 days at 36±1° C. Following incubation, spores were harvested by adding 10 mL cold sterile water to each plate, the growth removed from the plates using a spreader, and the resulting suspensions were transferred into 15 mL sterile conical tubes. The suspensions were centrifuged at 5,000 rpm (4,500×g) for approximately 10 minutes at room temperature. After removal of the supernatant, the spore pellet was washed by re-suspending pellet with 10 mL cold sterile water and centrifuged at 5,000 rpm (4,500×g) for approximately 10 minutes. This washing step was repeated two more times. The spore pellet was re-suspended with 10 mL sterile water and the spore suspension was stored at 2-5° C. until needed. The spore suspension was stained using stain and the spores examined under the microscope to assess quality of the spores. A minimum of five fields were examined and the ratio of the spores to vegetative cells (or sporangia) was determined. Percentage of spores versus vegetative cells were about 95% spores. Spore titer was determined by preparing serial dilutions, plating the dilutions on TSA plates, incubating plates for 24±2 hours at 36±1° C., and counting the number of colonies formed to determine the titer. The test culture was standardized by using phosphate buffer to achieve a final test culture microbe population of 1.0×10^6 cfu/mL.
Assay samples were set up with or without serum, such as, e.g., Tryptic Soy Broth (TSB) or Bovine Serum (BS). The purpose of the serum was to better simulate the organic load of blood and other tissue which tends to deactivate an antimicrobial agent. In general, assays were conducted by first incubating a pathogen spore sample with a composition disclosed herein for a specified treatment time period, optionally with serum, and then culturing the sample on growth medium to assess spore viability.
In one series of experiments, assays where the samples were treated with serum were set up to contain 100 μL of pathogen spore suspension (containing about 1×10^6 cfu/mL), 50 μL of serum, and 850 μL of a composition described in Example 1. […] The inoculated plates were then incubated at 37° C. for 48 hours and the number of bacterial colonies, if any, counted. […]

Row | Compound | Count (number of bacterial colonies), 5% Serum | Count (number of bacterial colonies), No Serum
1 | O=CCCCC=O [0.5% Glutaraldehyde, Glutaraldehyde] | >500 | >500
2 | hypochlorous acid [97 ppm HOCl] | >500 | 0
